# US20080058373A1, “Compositions and Methods for Treating or Preventing Glaucoma or Progression Thereof” (priority 2006, published 2008)
# Legend:
# Prostaglandin E2 (PGE2) = Prostaglandin E2 (PGE2) measurement in aqueous humor, rabbit paracentesis model; format: in vivo; conditions: second paracentesis, group mean
# Method: Each rabbit was placed in a restraint device and tagged with the alphanumeric code. The formulations were instilled (50 μl) into the conjunctival sac of both eyes 180, 120, 90 and 30 min before the first paracentesis; then 15, 30, 90 min after the first paracentesis. To perform the first paracentesis the animals were anaesthetized by intravenous injection of 5 mg/kg Zoletil® (Virbac; 2.5 mg/kg tiletamine HCl and 2.5 mg/kg zolazepam HCl) and one drop of local anesthetic (Novesina®, Novartis) was administered to the eye. Anterior chamber paracentesis was performed with a 26 G needle attached to a tuberculin syringe; the needle was introduced into the anterior chamber through the cornea, taking care not to damage the tissues. Two hours after the first paracentesis, the animals were sacrificed with 0.4 ml Tanax® (Intervet International B.V.) and the second paracentesis was performed. About 100 μl of aqueous humor were removed at the second paracentesis. Aqueous humor was immediately split in four aliquots and stored at −80° C. until analysis. Then both eyes were enucleated and the iris-ciliary body was carefully excised, placed in polypropylene tubes, and stored at −80° C. until analysis.
# For the quantitative determination of PGE2 in the aqueous humor we used the PGE2 Immunoassay kit (R&D Systems; Cat.No. KGE004; Lot.No. 240010). Eleven microliters or 16 μl of aqueous humor were diluted to 110 μl or 160 μl with the calibrator diluent solution provided with the kit. One hundred microliters of samples and of standards were load into a 96-well plate and recorded in a plate layout. Samples were treated following the assay procedure described in the kit. A microplate reader (GDV, Italy; model DV 990 B/V6) set at 450 nm (wavelength correction at 540 nm) was used for making the calibration and analyzing the samples.
# [1] = test system: New Zealand White rabbits; experiment: Intraocular pressure (IOP) in rabbits, topical dosing four times daily; format: in vivo; conditions: for Intraocular Pressure (MEAN): treated right eyes, A.M. readings
# Method: Seventy-five rabbits underwent two weeks of IOP training to condition them for IOP measurement. IOP was determined for both eyes of each animal using a Medtronic Solan, Model 30 classic pneumatonometer. Proparacaine hydrochloride 0.5% (1 drop) was delivered to each eye prior to IOP measurement. A two-point diurnal curve was established: IOP was recorded on Monday, Wednesday, and Friday of each week, at 8 a.m. and 12 p.m., with a ±1 hour range for each of these times. The time of the measurements was recorded.
# On Days 1-31, animals received daily topical doses of the appropriate test article into the right eye. Animals were dosed four times per day, with doses administered 2 hours apart. Doses were administered using a calibrated 50-μL pipette. The eyelids were held close for 10 seconds immediately following dosing. The time of each dose administration was recorded.
# Intraocular pressure (“IOP”) was determined for both eyes of each animal on Days 3, 5, 10, 12, 16, 18, 22, 24, 26, 30, and 32. IOP was evaluated with a Medtronic Solan, Model 30 classic pneumatonometer. Proparacaine hydrochloride 0.5% (1 drop) was delivered to each eye prior to IOP measurement. IOP was measured on Monday, Wednesday, and Friday of each week. A two-point diurnal curve was established: IOP was recorded at 8 a.m. and 12 p.m. on Day 3, and at 8 a.m. and 2 p.m. on later days, with a ±1 hour range for each of these times. The time of the measurements was recorded.
# Descriptive statistics were prepared for IOP data of each treatment group (left and right eyes separately) at each measurement interval. The statistics included the number of observations (“N”), mean, standard deviation (“STD”), and standard error (“SEM”). Statistical analyses were conducted on IOP results using Statistical Analysis Systems (SAS Institute, Inc., Cary, N.C., V8.0). Parameters were evaluated using analysis of variance/GLM Procedure followed by Tukey's Standardized Range Test (Tukey, 1985) for post hoc comparisons of group means. The level of significance was set at a probability of p<0.05 for all statistical procedures. Group IOP means were compared at each interval, with left and right eyes compared separately.
smiles,measurement,setting,value
Cc1ccc2c(NCC(O)(CC(C)(C)c3cc(F)cc4c3OCC4)C(F)(F)F)cccc2n1 (stereo not drawn),"Levels of PGE2 in aqueous humor, Mean",Prostaglandin E2 (PGE2); 0.1% topical,1.452 ng/mL
same,"Levels of PGE2 in aqueous humor, Mean",Prostaglandin E2 (PGE2); 0.5% topical,1.384 ng/mL
same,"Levels of PGE2 in aqueous humor, Mean",Prostaglandin E2 (PGE2); 1% topical,2.168 ng/mL
same,"Intraocular Pressure in Untreated Left Eyes (A.M. Readings), MEAN","[1]; 1 mg/g (Group D), Day 3",23.5 mmHg
same,"Intraocular Pressure in Untreated Left Eyes (A.M. Readings), MEAN","[1]; 1 mg/g (Group D), Day 5",24.4 mmHg
same,"Intraocular Pressure in Untreated Left Eyes (A.M. Readings), MEAN","[1]; 1 mg/g (Group D), Day 10",24.5 mmHg
same,"Intraocular Pressure in Untreated Left Eyes (A.M. Readings), MEAN","[1]; 1 mg/g (Group D), Day 12",22.2 mmHg
same,"Intraocular Pressure in Untreated Left Eyes (A.M. Readings), MEAN","[1]; 1 mg/g (Group D), Day 16",21.6 mmHg
same,"Intraocular Pressure in Untreated Left Eyes (A.M. Readings), MEAN","[1]; 1 mg/g (Group D), Day 18",23.3 mmHg
same,"Intraocular Pressure in Untreated Left Eyes (A.M. Readings), MEAN","[1]; 1 mg/g (Group D), Day 22",22.4 mmHg
same,"Intraocular Pressure in Untreated Left Eyes (A.M. Readings), MEAN","[1]; 1 mg/g (Group D), Day 24",22.4 mmHg
same,"Intraocular Pressure in Untreated Left Eyes (A.M. Readings), MEAN","[1]; 1 mg/g (Group D), Day 26",22.9 mmHg
same,"Intraocular Pressure in Untreated Left Eyes (A.M. Readings), MEAN","[1]; 1 mg/g (Group D), Day 30",23.4 mmHg
same,"Intraocular Pressure in Untreated Left Eyes (A.M. Readings), MEAN","[1]; 1 mg/g (Group D), Day 32",24.1 mmHg
same,"Intraocular Pressure in Untreated Left Eyes (A.M. Readings), MEAN","[1]; 1 mg/g (Group D), Pre-Study",23.9 mmHg
same,"Intraocular Pressure in Untreated Left Eyes (A.M. Readings), MEAN","[1]; 5 mg/g (Group C), Day 3",23.8 mmHg
same,"Intraocular Pressure in Untreated Left Eyes (A.M. Readings), MEAN","[1]; 5 mg/g (Group C), Day 5",24.4 mmHg
same,"Intraocular Pressure in Untreated Left Eyes (A.M. Readings), MEAN","[1]; 5 mg/g (Group C), Day 10",24.6 mmHg
same,"Intraocular Pressure in Untreated Left Eyes (A.M. Readings), MEAN","[1]; 5 mg/g (Group C), Day 12",23.8 mmHg
same,"Intraocular Pressure in Untreated Left Eyes (A.M. Readings), MEAN","[1]; 5 mg/g (Group C), Day 16",23.4 mmHg
same,"Intraocular Pressure in Untreated Left Eyes (A.M. Readings), MEAN","[1]; 5 mg/g (Group C), Day 18",21.9 mmHg
same,"Intraocular Pressure in Untreated Left Eyes (A.M. Readings), MEAN","[1]; 5 mg/g (Group C), Day 22",21.6 mmHg
same,"Intraocular Pressure in Untreated Left Eyes (A.M. Readings), MEAN","[1]; 5 mg/g (Group C), Day 24",22.1 mmHg
same,"Intraocular Pressure in Untreated Left Eyes (A.M. Readings), MEAN","[1]; 5 mg/g (Group C), Day 26",21.7 mmHg
same,"Intraocular Pressure in Untreated Left Eyes (A.M. Readings), MEAN","[1]; 5 mg/g (Group C), Day 30",22.6 mmHg
same,"Intraocular Pressure in Untreated Left Eyes (A.M. Readings), MEAN","[1]; 5 mg/g (Group C), Day 32",23.1 mmHg
same,"Intraocular Pressure in Untreated Left Eyes (A.M. Readings), MEAN","[1]; 5 mg/g (Group C), Pre-Study",24.2 mmHg
same,"Intraocular Pressure in Untreated Left Eyes (A.M. Readings), MEAN","[1]; 10 mg/g (Group B), Day 3",23.3 mmHg
same,"Intraocular Pressure in Untreated Left Eyes (A.M. Readings), MEAN","[1]; 10 mg/g (Group B), Day 5",23.4 mmHg
same,"Intraocular Pressure in Untreated Left Eyes (A.M. Readings), MEAN","[1]; 10 mg/g (Group B), Day 10",24.0 mmHg
same,"Intraocular Pressure in Untreated Left Eyes (A.M. Readings), MEAN","[1]; 10 mg/g (Group B), Day 12",23.8 mmHg
same,"Intraocular Pressure in Untreated Left Eyes (A.M. Readings), MEAN","[1]; 10 mg/g (Group B), Day 16",22.9 mmHg
same,"Intraocular Pressure in Untreated Left Eyes (A.M. Readings), MEAN","[1]; 10 mg/g (Group B), Day 18",21.2 mmHg
same,"Intraocular Pressure in Untreated Left Eyes (A.M. Readings), MEAN","[1]; 10 mg/g (Group B), Day 22",21.8 mmHg
same,"Intraocular Pressure in Untreated Left Eyes (A.M. Readings), MEAN","[1]; 10 mg/g (Group B), Day 24",20.2 mmHg
same,"Intraocular Pressure in Untreated Left Eyes (A.M. Readings), MEAN","[1]; 10 mg/g (Group B), Day 26",21.7 mmHg
same,"Intraocular Pressure in Untreated Left Eyes (A.M. Readings), MEAN","[1]; 10 mg/g (Group B), Day 30",22.7 mmHg
same,"Intraocular Pressure in Untreated Left Eyes (A.M. Readings), MEAN","[1]; 10 mg/g (Group B), Day 32",22.9 mmHg
same,"Intraocular Pressure in Untreated Left Eyes (A.M. Readings), MEAN","[1]; 10 mg/g (Group B), Pre-Study",23.8 mmHg
same,Intraocular Pressure (MEAN),"[1]; Day 3, 1 mg/g (Group D)",23.0 mmHg
same,Intraocular Pressure (MEAN),"[1]; Day 3, 5 mg/g (Group C)",23.7 mmHg
same,Intraocular Pressure (MEAN),"[1]; Day 3, 10 mg/g (Group B)",22.7 mmHg
same,Intraocular Pressure (MEAN),"[1]; Day 5, 1 mg/g (Group D)",24.7 mmHg
same,Intraocular Pressure (MEAN),"[1]; Day 5, 5 mg/g (Group C)",24.7 mmHg
same,Intraocular Pressure (MEAN),"[1]; Day 5, 10 mg/g (Group B)",23.8 mmHg
same,Intraocular Pressure (MEAN),"[1]; Day 10, 1 mg/g (Group D)",24.8 mmHg
same,Intraocular Pressure (MEAN),"[1]; Day 10, 5 mg/g (Group C)",25.2 mmHg
same,Intraocular Pressure (MEAN),"[1]; Day 10, 10 mg/g (Group B)",24.5 mmHg
same,Intraocular Pressure (MEAN),"[1]; Day 12, 1 mg/g (Group D)",23.4 mmHg
same,Intraocular Pressure (MEAN),"[1]; Day 12, 5 mg/g (Group C)",25.0 mmHg
same,Intraocular Pressure (MEAN),"[1]; Day 12, 10 mg/g (Group B)",23.9 mmHg
same,Intraocular Pressure (MEAN),"[1]; Day 16, 1 mg/g (Group D)",22.1 mmHg
same,Intraocular Pressure (MEAN),"[1]; Day 16, 5 mg/g (Group C)",24.3 mmHg
same,Intraocular Pressure (MEAN),"[1]; Day 16, 10 mg/g (Group B)",23.4 mmHg
same,Intraocular Pressure (MEAN),"[1]; Day 18, 1 mg/g (Group D)",23.7 mmHg
same,Intraocular Pressure (MEAN),"[1]; Day 18, 5 mg/g (Group C)",23.9 mmHg
same,Intraocular Pressure (MEAN),"[1]; Day 18, 10 mg/g (Group B)",22.3 mmHg
same,Intraocular Pressure (MEAN),"[1]; Day 22, 1 mg/g (Group D)",23.2 mmHg
same,Intraocular Pressure (MEAN),"[1]; Day 22, 5 mg/g (Group C)",22.4 mmHg
same,Intraocular Pressure (MEAN),"[1]; Day 22, 10 mg/g (Group B)",22.4 mmHg
same,Intraocular Pressure (MEAN),"[1]; Day 24, 1 mg/g (Group D)",22.1 mmHg
same,Intraocular Pressure (MEAN),"[1]; Day 24, 5 mg/g (Group C)",23.8 mmHg
same,Intraocular Pressure (MEAN),"[1]; Day 24, 10 mg/g (Group B)",21.2 mmHg
same,Intraocular Pressure (MEAN),"[1]; Day 26, 1 mg/g (Group D)",23.1 mmHg
same,Intraocular Pressure (MEAN),"[1]; Day 26, 5 mg/g (Group C)",22.1 mmHg
same,Intraocular Pressure (MEAN),"[1]; Day 26, 10 mg/g (Group B)",21.8 mmHg
same,Intraocular Pressure (MEAN),"[1]; Day 30, 1 mg/g (Group D)",24.2 mmHg
same,Intraocular Pressure (MEAN),"[1]; Day 30, 5 mg/g (Group C)",22.9 mmHg
same,Intraocular Pressure (MEAN),"[1]; Day 30, 10 mg/g (Group B)",22.7 mmHg
